Assay results from paper PMC9863764, “Roles of Human Liver Cytochrome P450 Enzymes in Tenatoprazole Metabolism” (Pharmaceutics, 2022).
Where “and” joins values, the source holds several entries; their conditions need not be identical. Equal entries are not always repeated.

How the values were obtained:
Type in all cases: in vitro ADME
CYP2A6 = target: T1, CYP2A6 (Homo sapiens, UniProt P11509); test: Tenatoprazole oxidation by recombinant CYP2A6; details: substrate tenatoprazole 0.10 mM, 0.20 μM CYP2A6; no apparent formation
T1 construct: made in house; host or cells: Escherichia coli (membrane fractions)
T1 sequence (P11509 1-494): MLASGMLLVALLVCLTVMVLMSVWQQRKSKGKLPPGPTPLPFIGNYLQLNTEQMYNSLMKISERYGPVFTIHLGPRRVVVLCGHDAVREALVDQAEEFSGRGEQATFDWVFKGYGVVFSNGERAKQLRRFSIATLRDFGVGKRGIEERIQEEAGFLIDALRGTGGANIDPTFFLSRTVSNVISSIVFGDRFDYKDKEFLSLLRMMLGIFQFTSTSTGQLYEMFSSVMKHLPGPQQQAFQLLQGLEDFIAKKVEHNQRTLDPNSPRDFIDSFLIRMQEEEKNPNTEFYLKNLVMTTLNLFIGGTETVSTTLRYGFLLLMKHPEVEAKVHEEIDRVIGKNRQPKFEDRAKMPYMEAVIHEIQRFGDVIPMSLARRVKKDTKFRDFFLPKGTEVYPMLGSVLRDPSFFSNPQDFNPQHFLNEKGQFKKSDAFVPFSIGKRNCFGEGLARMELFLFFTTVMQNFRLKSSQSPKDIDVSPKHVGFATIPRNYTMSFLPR
Description: (§1) Pooled liver microsomes from human samples were obtained from ThermoFisher Scientific (Waltham, MA, USA). Recombinant human P450s were heterologously expressed in Escherichia coli with a pCW vector containing human P450 cDNA (CYP 3A4, 2C9, 2C19, 1A2, 1B1, 2E1, 2D6, and 2A6) and rat NADPH-P450 reductase (CPR). Membrane fractions expressing both P450 and CPR of E. coli were prepared as described previously and were used for the catalytic activity assays.
(§2) The reaction mixture included 0.20 μM P450, 0.40 μM CPR, and tenatoprazole (0.10 mM) in 0.25 mL of 0.10 M potassium phosphate buffer (pH 7.4). The reaction was started by adding NGS and the incubation was continued for the indicated time at 37 °C. Incubation was then stopped by adding ice-chilled ethyl acetate (0.50 mL) and omeprazole (IS) was added to a final concentration of 20 μM. The mixtures were vortexed for 2 min, centrifuged at 1000× g for 20 min, and then the organic layer was taken for drying under nitrogen gas stream. The residues were dissolved in 180 μL of HPLC mobile phase and 30 μL was injected onto a Gemini C18 column (4.6 × 150 mm, 5 μm; Phenomenex, Torrance, CA, USA). The products formed were analyzed by HPLC at A302. The HPLC profile of the authentic chemicals (i.e., tenatoprazole, tenatoprazole sulfide, and their metabolites) were used to identify the major metabolites of tenatoprazole and tenatoprazole sulfide produced by the recombinant P450s.
(§3) Figure S6. HPLC analyses of the products derived from the oxidation of tenatoprazole catalyzed by recombinant human P450s. The reaction mixture included 0.20 μM P450, 0.40 μM CPR, and 0.10 mM tenatoprazole in 0.25 mL of potassium phosphate buffer (0.10 M, pH 7.4). The reaction was started by adding an NGS at 37 °C for 60 min. (A) CYP1A2; (B) CYP1B1; (C) CYP2A6; (D) CYP2C9; (E) CYP2D6; (F) CYP2E1. The arrows with solid and broken lines indicate the retention times of 5’-OH tenatoprazole (6.6 min) and 5’-OH tenatoprazole sulfide (8.4 min), respectively.
(§4) (1 picture or pasted object on this page, not shown here)

human CYP3A4 = target: T2, human CYP3A4 (Homo sapiens, UniProt P08684); test: Steady-state kinetics of tenatoprazole oxidation by recombinant CYP3A4; details: for kcat of product formation: substrate tenatoprazole (1–500 μM), recombinant CYP3A4 0.20 μM, 37 °C, 5 min, label = product formed
T2 construct: made in house; host or cells: Escherichia coli (membrane fractions)
Description: Pooled liver microsomes from human samples were obtained from ThermoFisher Scientific (Waltham, MA, USA). […] Membrane fractions expressing both P450 and CPR of E. coli were prepared as described previously and were used for the catalytic activity assays. […] The reaction was started by adding NGS and the incubation was continued for the indicated time at 37 °C. Incubation was then stopped by adding ice-chilled ethyl acetate (0.50 mL) and omeprazole (IS) was added to a final concentration of 20 μM. […] Phenomenex, Torrance, CA, USA). The products formed were analyzed by HPLC at […]. The HPLC profile of the authentic chemicals (i.e., tenatoprazole, tenatoprazole sulfide, and their metabolites) were used to identify the major metabolites of tenatoprazole and tenatoprazole sulfide produced by the recombinant P450s. […] The kinetic parameters (kcat and Km) were determined by using a Michaelis-Menten nonlinear regression analysis with GraphPad Prism (GraphPad Software, San Diego, CA, USA). To further characterize the nature of the metabolites, the reaction mixtures were additionally analyzed by a 6530 Quadrupole Time-of-Flight (QTOF) mass spectrometer (MS) (Agilent, Santa Clara, CA, USA) coupled with a 1290 Infinity ultra-performance liquid chromatography (UPLC) system (Agilent). […] The reaction was initiated by adding NGS at 37 °C. […] Then, the upper layer was transferred to a glass tube and dried under nitrogen stream. The residues were reconstituted in 0.30 mL acetonitrile, then 1 μL samples were injected into an LC-MS system. The analytical column was a Hypersil Gold C18 column (100 × 2.1 mm, 1.9 μm; ThermoFisher Scientific). […] A gradient program was used for HPLC separation, and the flow rate was 0.4 mL/min. […] The column and autosampler were kept at 35 °C and 4 °C, respectively, during analysis. Electrospray ionization was performed in the positive ion mode. The sheath gas flow rate was 8 L/min. The flow rate of drying gas was 12 L/min at 350 °C, and the nebulizer's temperature was set at 350 °C. The capillary voltage was 4500 V in the positive mode, and that of the fragmentor was 175 V. Data acquisition were done over a scan range from 50 m/z to 1000 m/z in the centroid mode. A reference compound (C18H18O6N3P3F24; [M+H]^+ = 922.0098) was used to correct all of the masses. Tandem mass spectrometry (MS/MS) data were acquired in profile mode via autoanalysis for structural characterization with 30 eV of the collision energy.

CYP2E1 = target: T3, CYP2E1 (Homo sapiens, UniProt P05181); test: Tenatoprazole oxidation by recombinant CYP2E1; details: substrate tenatoprazole 0.10 mM, 0.20 μM CYP2E1; no apparent formation
T3 construct: made in house; host or cells: Escherichia coli (membrane fractions)
Description: as §1, §2, §3, §4

CYP2C9 = target: T4, CYP2C9 (Homo sapiens, UniProt P11712); test: Tenatoprazole oxidation by recombinant CYP2C9; details: substrate tenatoprazole 0.10 mM, 0.20 μM CYP2C9
T4 construct: made in house; host or cells: Escherichia coli (membrane fractions)
Description: as §1
as §2, with “The HPLC profile of the authentic chemicals (i.e., tenatoprazole, tenatoprazole sulfide, and their metabolites) were used to identify the major metabolites of tenatoprazole and tenatoprazole sulfide produced by the recombinant P450s.” left out

T2 sequence (P08684 whole entry): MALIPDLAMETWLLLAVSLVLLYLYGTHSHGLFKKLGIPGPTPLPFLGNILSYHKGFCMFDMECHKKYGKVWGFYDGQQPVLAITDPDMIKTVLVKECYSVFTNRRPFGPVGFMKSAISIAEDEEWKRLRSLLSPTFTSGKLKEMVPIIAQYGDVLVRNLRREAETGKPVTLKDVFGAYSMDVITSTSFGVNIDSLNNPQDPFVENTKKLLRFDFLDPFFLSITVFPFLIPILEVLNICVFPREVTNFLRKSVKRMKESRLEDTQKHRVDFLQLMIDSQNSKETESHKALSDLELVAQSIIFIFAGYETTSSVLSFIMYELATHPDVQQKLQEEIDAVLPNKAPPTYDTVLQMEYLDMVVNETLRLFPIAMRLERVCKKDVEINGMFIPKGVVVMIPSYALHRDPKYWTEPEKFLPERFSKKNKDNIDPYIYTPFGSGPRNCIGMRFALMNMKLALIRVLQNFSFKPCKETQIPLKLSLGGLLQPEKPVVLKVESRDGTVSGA
T3 sequence (P05181 whole entry): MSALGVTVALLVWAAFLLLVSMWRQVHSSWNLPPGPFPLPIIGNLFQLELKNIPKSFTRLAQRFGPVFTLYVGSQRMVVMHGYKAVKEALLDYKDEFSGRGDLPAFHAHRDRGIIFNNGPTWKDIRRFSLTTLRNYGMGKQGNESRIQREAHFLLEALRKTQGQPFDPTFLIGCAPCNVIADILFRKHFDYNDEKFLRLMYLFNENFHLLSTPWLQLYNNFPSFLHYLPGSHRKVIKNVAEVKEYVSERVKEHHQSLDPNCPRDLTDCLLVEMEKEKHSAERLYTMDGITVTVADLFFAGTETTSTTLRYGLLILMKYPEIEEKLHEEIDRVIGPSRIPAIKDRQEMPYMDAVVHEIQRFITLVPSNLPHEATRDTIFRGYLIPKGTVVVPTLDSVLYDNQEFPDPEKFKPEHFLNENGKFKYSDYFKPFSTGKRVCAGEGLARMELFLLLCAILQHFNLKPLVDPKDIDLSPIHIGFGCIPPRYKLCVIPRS
T4 sequence (P11712 whole entry): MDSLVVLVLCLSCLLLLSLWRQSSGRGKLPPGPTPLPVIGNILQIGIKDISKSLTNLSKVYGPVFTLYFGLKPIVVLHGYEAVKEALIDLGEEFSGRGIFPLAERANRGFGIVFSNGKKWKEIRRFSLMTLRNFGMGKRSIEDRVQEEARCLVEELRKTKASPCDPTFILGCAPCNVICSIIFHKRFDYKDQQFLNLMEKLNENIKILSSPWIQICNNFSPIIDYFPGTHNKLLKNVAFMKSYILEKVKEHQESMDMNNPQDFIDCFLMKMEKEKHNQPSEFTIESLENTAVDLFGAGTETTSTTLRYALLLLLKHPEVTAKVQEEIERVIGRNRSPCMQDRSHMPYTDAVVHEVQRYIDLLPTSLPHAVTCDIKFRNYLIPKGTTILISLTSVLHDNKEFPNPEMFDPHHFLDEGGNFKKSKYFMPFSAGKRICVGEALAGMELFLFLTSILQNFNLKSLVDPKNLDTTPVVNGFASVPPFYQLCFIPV

SMILES | formation rate of metabolite (CYP2A6) | kcat of product formation (human CYP3A4) | formation rate of metabolite (CYP2E1) | fold higher Km of CYP3A4 than CYP2C19 (human CYP3A4; 5′-OH tenatoprazole formation from tenatoprazole) [fold] | formation rate of metabolite (CYP2C9) [min⁻¹]
COc1ccc2[nH]c(S(=O)(=O)Cc3ncc(C)c(OC)c3C)nc2n1 [tenatoprazole sulfone] | < 0.05 nmol product/min/nmol P450 | 0.045 s⁻¹ and 0.045 ± 0.013 s⁻¹ | < 0.05 nmol product/min/nmol P450 |  | 
COc1ccc2[nH]c([S+]([O-])Cc3ncc(CO)c(OC)c3C)nc2n1 (centres unmarked) [5′-OH tenatoprazole, 5′-hydroxy tenatoprazole] | < 0.05 nmol product/min/nmol P450 | 0.105 s⁻¹ and 0.105 ± 0.005 s⁻¹ | < 0.05 nmol product/min/nmol P450 | 100 | 0.1
